In PubChem BioAssay (NCI) one finds TGI data, which are given here for 21 molecules.

What all share (assay): growth of human tumour cells (NCI), 48 h
The subject of experiment [1] is 786-0 renal.
Experiment [2] has as its system HCT-116 colon.
Experiment [3] deals with MDA-MB-231 breast.
Experiment [4] relates to SF-539 CNS.
Experiment [5] relates to SR leukemia.
For experiment [6], the system named is HS 578T breast.

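1) Cells in 96-well plates. 2) Compound, 48 h, 5 concentrations. 3) Linear interpolation between surrounding doses. 4) Unreached endpoint = highest concentration. The concentration for full growth arrest is given as TGI.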

With `CC(=O)/C(=C\n1c(=S)[nH]c2ccc([N+](=O)[O-])cc21)C(=O)Nc1ccccc1C`, the TGI in experiment [1], in experiment [2], in experiment [3], in experiment [4] and in experiment [5] was greater than 100 µM each time.

Regarding `O=C(CN1c2ccccc2Sc2ccccc21)n1cnc2ccccc21`, the TGI in experiment [1], in experiment [2], in experiment [6], in experiment [3] and in experiment [4] was greater than 100 µM each time.

As to `COC(=O)/C=C(\S/C(=C(/c1ccccc1)n1cc(C(=O)OC)c(C(=O)OC)n1)c1ccccc1)C(=O)OC`, the TGI in experiment [1] is greater than 100 µM; in experiment [2] it was 37.1 µM; in experiment [6] it was 96.3 µM; in experiment [3], 44.6 µM; in experiment [4], 32.4 µM; in experiment [5] it was 32.6 µM.

With `CCOP(=O)(OCC)OC1CC(n2cnc3c(N(CC)CC)ncnc32)OC1CO[Si](C)(C)C(C)(C)C` (stereo not drawn), the TGI is 30 µM in experiment [1]; 30.6 µM in experiment [2]; 77.1 µM in experiment [6]; 33.8 µM in experiment [4]; greater than 100 µM in experiment [5].

Regarding `O=C1c2ccccc2-c2ccc(N(Cc3ccc(Br)cc3)Cc3ccc(Br)cc3)cc21`, the TGI in experiment [1], in experiment [2], in experiment [6], in experiment [3], in experiment [4] and in experiment [5] was greater than 100 µM throughout.

For `COc1ccc(-c2c(C(=O)Nc3ccccc3)c(-c3ccccc3)n(C3OC(CO)C(O)C(O)C3O)c(=S)c2C#N)cc1` (stereo not drawn), the TGI in experiment [1], in experiment [2], in experiment [6] and in experiment [5] was greater than 100 µM each time.

As for `COC1(CCO)CC=CCC1(CCO)OC` (stereo not drawn), the TGI in experiment [1], in experiment [2] and in experiment [6] was greater than 100 µM throughout.

For the molecule `CN(C)c1ccc(C=Nc2ccc(-c3nc4ccccc4o3)cc2)cc1`, the TGI in experiment [1], in experiment [2], in experiment [6], in experiment [3], in experiment [4] and in experiment [5] was greater than 100 µM throughout.

Consider `CN(Cc1cnc2nc(N)nc(N)c2n1)c1ccc(C(=O)NC2CCCCC2)cc1`, for which the TGI is greater than 100 µM in experiment [1]; greater than 100 µM in experiment [2]; 63.4 µM in experiment [6]; greater than 100 µM in experiment [3]; 29.7 µM in experiment [4]; greater than 100 µM in experiment [5].

For `CSc1nc2ccccc2c(=O)n1-c1cccc(C)c1`, the TGI in experiment [1] is greater than 100 µM; in experiment [2], greater than 100 µM; in experiment [6] it was greater than 100 µM; in experiment [3], greater than 100 µM; in experiment [4] it was greater than 100 µM; in experiment [5], 49.7 µM.

Turning to `O=[N+]([O-])c1ccc2nc(/C=C(\O)c3ccccc3)c(/C=C(\O)c3ccc(Cl)cc3)nc2c1`, the TGI in experiment [1], in experiment [2], in experiment [3], in experiment [4] and in experiment [5] was greater than 100 µM in each case.

With `CCCNc1c(Cl)cc(Cl)c2[nH]c3ccccc3c(=O)c12`, the TGI in experiment [1], in experiment [2], in experiment [3], in experiment [4] and in experiment [5] was greater than 100 µM throughout.

As to `COc1ccc(C(c2ccccc2)N2C(=O)CCC2C(=O)O)cc1OC` (stereo not drawn), the TGI in experiment [1], in experiment [2], in experiment [6], in experiment [3], in experiment [4] and in experiment [5] was greater than 100 µM throughout.

In the case of `CCOC(=O)C(NC(=O)Nc1ccccc1F)(OC)C(F)(F)F` (stereo not drawn), the TGI in experiment [1], in experiment [2], in experiment [6], in experiment [4] and in experiment [5] was greater than 100 µM each time.

For the molecule `CCCCC[C@H]1CC=CC(=O)O1`, the TGI was 13.3 µM in experiment [1]; 12.9 µM in experiment [2]; 50.6 µM in experiment [6]; 23 µM in experiment [3]; 4.82 µM in experiment [4]; 15.4 µM in experiment [5].

As for `CCC1c2[nH]c3ccccc3c2C[C@H]2C(=O)NC(Cc3ccccc3)C(=O)N12` (stereo partly drawn), the TGI was greater than 100 µM in experiment [1]; 57.1 µM in experiment [2]; 47.9 µM in experiment [6]; 46.2 µM in experiment [3]; 53.8 µM in experiment [5].

Take `Cc1[nH]c2ncn(N)c(=N)c2c1Cc1ccccc1`: the TGI in experiment [1], in experiment [2], in experiment [3], in experiment [4] and in experiment [5] was greater than 100 µM throughout.

With `N#Cc1c(-c2ccccc2)cc(Nc2ccc(F)cc2)n2c1nc1ccccc12`, the TGI in experiment [1] was 10 µM; in experiment [2] it was 6.06 µM; in experiment [6], 4.68 µM; in experiment [3], 65.2 µM; in experiment [4] it was greater than 22.7 µM; in experiment [5], greater than 100 µM.

On to `CCOC(=O)c1cc(NC(=O)c2ccccc2)c(=O)n2c(cc3c(Cl)cccc32)c1O`, for which the TGI in experiment [1], in experiment [2], in experiment [6], in experiment [3], in experiment [4] and in experiment [5] was greater than 100 µM throughout.

Consider `c1ncc(C23C4C5C6C4C2C6C53)[nH]1` (stereo not drawn), for which the TGI in experiment [1], in experiment [2], in experiment [6], in experiment [3], in experiment [4] and in experiment [5] was greater than 100 µM each time.

Regarding `Nc1nc(Cl)cc(NCC2(CO)CC(O)C2)n1` (stereo not drawn), the TGI in experiment [1], in experiment [2], in experiment [6], in experiment [3], in experiment [4] and in experiment [5] was greater than 100 µM each time.
